Measurements as given in patent US6525001B1, “Substituted pyrimidine and pyridine herbicides” (Mid-American Commercialization Corporation, priority 1997, dated 2003).

How the values were obtained:
Experiment in all cases: Test B pre-/postemergence
Type in all cases: in vivo
Design in all cases: key: 0 is no effect; 10 is complete control
[1] = system: momingglory (Ipomoea hederacea)
In short: (§1)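 Seeds were planted and sprayed preemergence, while plants at 2 to 18 cm (1- to 4-leaf stage) were sprayed postemergence at the same time, with test chemical in a non-phytotoxic solvent mixture containing surfactant. After twelve to sixteen days in a greenhouse, injury was rated visually against untreated controls on a 0–10 scale.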

[2] = system: pigweed (Amaranthus retroflexus)
In short: as §1

[3] = system: blackgrass (Alopecurus myosuroides)
In short: as §1

[4] = system: velvetleaf (Abutilon theophrasti)
In short: as §1

[5] = system: wheat (Triticum aestivum)
In short: as §1

[6] = system: cocklebur (Xanthium strumarium)
In short: as §1

rape (Brassica napus) = system: rape (Brassica napus)
In short: as §1

wild oat (Avena fatua) = system: wild oat (Avena fatua)
In short: as §1

[7] = system: bedstraw (Galium aparine)
In short: as §1

soybean (Glycine max) = system: soybean (Glycine max)
In short: as §1

[8] = system: sugar beet (Beta vulgaris)
In short: as §1

[9] = system: crabgrass (Digitaria sanguinalis)
In short: as §1

[10] = system: broadleaf signalgrass (Brachiaria decumbens)
In short: as §1

corn (Zea mays) = system: corn (Zea mays)
In short: as §1

`Cc1cnc(-c2ccc(C(F)(F)F)cc2)nc1C(Cl)c1cccc(C(F)(F)F)c1` (racemic) [Compound 21] was tested, and the “Plant response rating, Morningglory” value ([1]; Rate 62 g/ha, Postemergence) was 8, the “Morningglory plant response rating” value ([1]; Rate 62 g/ha, Preemergence) was 1 and the “Plant response rating, Morningglory” value ([1]; Rate 125 g/ha, Postemergence) was 8. For the same compound, the “Morningglory plant response rating” value ([1]; Rate 125 g/ha, Preemergence) was 1, the “Plant response rating, Morningglory” value ([1]; Rate 250 g/ha, Postemergence) was 9 and the “Plant response rating, Morningglory” value ([1]; Rate 250 g/ha, Preemergence) was 6. For the same compound, the “Plant response rating, Redroot pigweed” value ([2]; Rate 62 g/ha, Postemergence) was 8, the “Redroot pigweed plant response rating” value ([2]; Rate 62 g/ha, Preemergence) was 7 and the “Plant response rating, Redroot pigweed” value ([2]; Rate 125 g/ha, Postemergence) was 9. The “Redroot pigweed plant response rating” value ([2]; Rate 125 g/ha, Preemergence) was 8, the “Plant response rating, Redroot pigweed” value ([2]; Rate 250 g/ha, Postemergence) was 10 and the “Plant response rating, Redroot pigweed” value ([2]; Rate 250 g/ha, Preemergence) was 9. For the same compound, the “Plant response rating, Blackgrass” value ([3]; Rate 62 g/ha, Postemergence) was 3, the “Blackgrass plant response rating” value ([3]; Rate 62 g/ha, Preemergence) was 1 and the “Plant response rating, Blackgrass” value ([3]; Rate 125 g/ha, Postemergence) was 4. The “Blackgrass plant response rating” value ([3]; Rate 125 g/ha, Preemergence) was 3, the “Plant response rating, Blackgrass” value ([3]; Rate 250 g/ha, Postemergence) was 6 and the “Plant response rating, Blackgrass” value ([3]; Rate 250 g/ha, Preemergence) was 5. For the same compound, the “Plant response rating, Velvetleaf” value ([4]; Rate 62 g/ha, Postemergence) was 7, the “Velvetleaf plant response rating” value ([4]; Rate 62 g/ha, Preemergence) was 4 and the “Plant response rating, Velvetleaf” value ([4]; Rate 125 g/ha, Postemergence) was 8. The “Velvetleaf plant response rating” value ([4]; Rate 125 g/ha, Preemergence) was 8, the “Plant response rating, Velvetleaf” value ([4]; Rate 250 g/ha, Postemergence) was 9 and the “Plant response rating, Velvetleaf” value ([4]; Rate 250 g/ha, Preemergence) was 10. The “Plant response rating, Wheat” value ([5]; Rate 62 g/ha, Postemergence) was 4, the “Wheat plant response rating” value ([5]; Rate 62 g/ha, Preemergence) was 0 and the “Plant response rating, Wheat” value ([5]; Rate 125 g/ha, Postemergence) was 4. For the same compound, the “Wheat plant response rating” value ([5]; Rate 125 g/ha, Preemergence) was 0, the “Plant response rating, Wheat” value ([5]; Rate 250 g/ha, Postemergence) was 5 and the “Plant response rating, Wheat” value ([5]; Rate 250 g/ha, Preemergence) was 2. The “Plant response rating, Cocklebur” value ([6]; Rate 62 g/ha, Postemergence) was 7, the “Cocklebur plant response rating” value ([6]; Rate 62 g/ha, Preemergence) was 0 and the “Plant response rating, Cocklebur” value ([6]; Rate 125 g/ha, Postemergence) was 8. The “Cocklebur plant response rating” value ([6]; Rate 125 g/ha, Preemergence) was 0, the “Plant response rating, Cocklebur” value ([6]; Rate 250 g/ha, Postemergence) was 8 and the “Plant response rating, Cocklebur” value ([6]; Rate 250 g/ha, Preemergence) was 0. For the same compound, the “Plant response rating, Rape” value (rape (Brassica napus); Rate 62 g/ha, Postemergence) was 9, the “Rape plant response rating” value (rape (Brassica napus); Rate 62 g/ha, Preemergence) was 2 and the “Plant response rating, Rape” value (rape (Brassica napus); Rate 125 g/ha, Postemergence) was 10. For the same compound, the “Rape plant response rating” value (rape (Brassica napus); Rate 125 g/ha, Preemergence) was 3, the “Plant response rating, Rape” value (rape (Brassica napus); Rate 250 g/ha, Postemergence) was 10 and the “Plant response rating, Rape” value (rape (Brassica napus); Rate 250 g/ha, Preemergence) was 5. For the same compound, the “Plant response rating, Wild oats” value (wild oat (Avena fatua); Rate 62 g/ha, Postemergence) was 4, the “Wild oats plant response rating” value (wild oat (Avena fatua); Rate 62 g/ha, Preemergence) was 4 and the “Plant response rating, Wild oats” value (wild oat (Avena fatua); Rate 125 g/ha, Postemergence) was 5. The “Wild oats plant response rating” value (wild oat (Avena fatua); Rate 125 g/ha, Preemergence) was 5, the “Plant response rating, Wild oats” value (wild oat (Avena fatua); Rate 250 g/ha, Postemergence) was 6 and the “Plant response rating, Wild oats” value (wild oat (Avena fatua); Rate 250 g/ha, Preemergence) was 8. The “Plant response rating, Bedstraw” value ([7]; Rate 62 g/ha, Postemergence) was 5, the “Bedstraw plant response rating” value ([7]; Rate 62 g/ha, Preemergence) was 0 and the “Plant response rating, Bedstraw” value ([7]; Rate 125 g/ha, Postemergence) was 9. The “Bedstraw plant response rating” value ([7]; Rate 125 g/ha, Preemergence) was 1, the “Plant response rating, Bedstraw” value ([7]; Rate 250 g/ha, Postemergence) was 9 and the “Plant response rating, Bedstraw” value ([7]; Rate 250 g/ha, Preemergence) was 8. The “Plant response rating, Soybean” value (soybean (Glycine max); Rate 62 g/ha, Postemergence) was 6, the “Soybean plant response rating” value (soybean (Glycine max); Rate 62 g/ha, Preemergence) was 0 and the “Plant response rating, Soybean” value (soybean (Glycine max); Rate 125 g/ha, Postemergence) was 6. For the same compound, the “Soybean plant response rating” value (soybean (Glycine max); Rate 125 g/ha, Preemergence) was 0, the “Plant response rating, Soybean” value (soybean (Glycine max); Rate 250 g/ha, Postemergence) was 6 and the “Plant response rating, Soybean” value (soybean (Glycine max); Rate 250 g/ha, Preemergence) was 0. For the same compound, the “Plant response rating, Sugarbeets” value ([8]; Rate 62 g/ha, Postemergence) was 9, the “Sugarbeets plant response rating” value ([8]; Rate 62 g/ha, Preemergence) was 7 and the “Plant response rating, Sugarbeets” value ([8]; Rate 125 g/ha, Postemergence) was 9. The “Sugarbeets plant response rating” value ([8]; Rate 125 g/ha, Preemergence) was 8, the “Plant response rating, Sugarbeets” value ([8]; Rate 250 g/ha, Postemergence) was 10 and the “Plant response rating, Sugarbeets” value ([8]; Rate 250 g/ha, Preemergence) was 10. For the same compound, the “Plant response rating, Crabgrass” value ([9]; Rate 62 g/ha, Postemergence) was 3, the “Crabgrass plant response rating” value ([9]; Rate 62 g/ha, Preemergence) was 3 and the “Plant response rating, Crabgrass” value ([9]; Rate 125 g/ha, Postemergence) was 6. The “Crabgrass plant response rating” value ([9]; Rate 125 g/ha, Preemergence) was 6, the “Plant response rating, Crabgrass” value ([9]; Rate 250 g/ha, Postemergence) was 8 and the “Plant response rating, Crabgrass” value ([9]; Rate 250 g/ha, Preemergence) was 10. The “Plant response rating, B. signalgrass” value ([10]; Rate 62 g/ha, Postemergence) was 3, the “B. signalgrass plant response rating” value ([10]; Rate 62 g/ha, Preemergence) was 2 and the “Plant response rating, B. signalgrass” value ([10]; Rate 125 g/ha, Postemergence) was 4. For the same compound, the “B. signalgrass plant response rating” value ([10]; Rate 125 g/ha, Preemergence) was 3, the “Plant response rating, B. signalgrass” value ([10]; Rate 250 g/ha, Postemergence) was 7 and the “Plant response rating, B. signalgrass” value ([10]; Rate 250 g/ha, Preemergence) was 8. For the same compound, the “Plant response rating, Corn” value (corn (Zea mays); Rate 62 g/ha, Postemergence) was 3, the “Corn plant response rating” value (corn (Zea mays); Rate 62 g/ha, Preemergence) was 0 and the “Plant response rating, Corn” value (corn (Zea mays); Rate 125 g/ha, Postemergence) was 3. The “Corn plant response rating” value (corn (Zea mays); Rate 125 g/ha, Preemergence) was 0, the “Plant response rating, Corn” value (corn (Zea mays); Rate 250 g/ha, Postemergence) was 4 and the “Plant response rating, Corn” value (corn (Zea mays); Rate 250 g/ha, Preemergence) was 1.
